The structures appear in SMILES notation.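 Assay format: 96-well plates, 48-hour exposure. Here, GI50 denotes the concentration required for 50% inhibition of growth. TGI is the concentration that stops growth completely.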

Test systems include HCC-2998 colon; HCT-15 colon; NCI-H226 lung; NCI/ADR-RES ovarian; OVCAR-3 ovarian; OVCAR-4 ovarian; SF-295 CNS; SK-MEL-28 melanoma; U251 CNS; UACC-257 melanoma.
Holding throughout (experiment): growth of human tumour cells (NCI), 48 h

In the case of `N#CC1=C(N)Oc2c(sc3c(Br)cccc23)C1c1ccc([N+](=O)[O-])cc1` (stereo not given), the GI50 in the test on HCC-2998 colon was 0.284 µM; in the test on HCT-15 colon, 0.0948 µM; in the test with NCI-H226 lung, 0.368 µM; in the test on NCI/ADR-RES ovarian, 0.0398 µM; in the test on OVCAR-3 ovarian it was 0.0403 µM; with OVCAR-4 ovarian, 0.9 µM. In addition, the GI50 in the test on SF-295 CNS is 0.0417 µM; in the test with SK-MEL-28 melanoma, 2.66 µM; in the test on U251 CNS, 0.151 µM; with UACC-257 melanoma, 11.4 µM. Further, the TGI in the test with HCC-2998 colon stood at 6.94 µM; in the test on HCT-15 colon, 10.5 µM; in the test with NCI-H226 lung, 15.6 µM; with NCI/ADR-RES ovarian it was 8.37 µM; with OVCAR-3 ovarian it was 0.849 µM; with OVCAR-4 ovarian, 18.7 µM. Further, the TGI with SF-295 CNS came to 11.1 µM; with SK-MEL-28 melanoma it was 21 µM; in the test on U251 CNS, 11.8 µM; in the test on UACC-257 melanoma, 27.5 µM.

For `CCOC(=O)c1noc2c1CCc1c-2cn(Cc2ccc(OC)cc2)c1-c1cc(OC)c(OC)c(OC)c1`, the GI50 with HCC-2998 colon was 5.17 µM; with HCT-15 colon, 0.499 µM; in the test with NCI-H226 lung, above 100 µM; in the test on NCI/ADR-RES ovarian it was 3.52 µM; in the test on OVCAR-3 ovarian it was 0.37 µM; with OVCAR-4 ovarian, 20.5 µM. Besides, the GI50 in the test with SF-295 CNS was 3.02 µM; in the test with SK-MEL-28 melanoma it was 1.9 µM; in the test on U251 CNS it was 0.542 µM; in the test on UACC-257 melanoma it was 85.8 µM. In addition, the TGI is above 100 µM with HCC-2998 colon; above 100 µM with HCT-15 colon; above 100 µM in the test with NCI-H226 lung; above 100 µM in the test with NCI/ADR-RES ovarian; 10.6 µM in the test on OVCAR-3 ovarian; above 100 µM in the test with OVCAR-4 ovarian. Further, the TGI in the test on SF-295 CNS, with SK-MEL-28 melanoma, in the test on U251 CNS and in the test with UACC-257 melanoma was above 100 µM throughout.

With `CCN1CCN(CCC(=O)Nc2cccc(-n3cc(-c4ccncc4)c(-c4ccc(Cl)c(OC)c4)n3)c2)CC1`, the GI50 in the test with HCC-2998 colon is 1.27 µM; in the test on HCT-15 colon it was 0.491 µM; in the test with NCI-H226 lung, 1.26 µM; with NCI/ADR-RES ovarian, 1.27 µM; in the test with OVCAR-3 ovarian, 0.352 µM; in the test with OVCAR-4 ovarian, 0.919 µM. Further, the GI50 with SF-295 CNS is 0.36 µM; with SK-MEL-28 melanoma, 1.39 µM; in the test on U251 CNS, 0.484 µM; with UACC-257 melanoma, 0.864 µM. For the same molecule, the TGI with HCC-2998 colon was determined as 2.63 µM; with HCT-15 colon it was 2.16 µM; with NCI-H226 lung it was 7.31 µM; in the test on NCI/ADR-RES ovarian, 4.29 µM; in the test on OVCAR-3 ovarian, 1.43 µM; in the test on OVCAR-4 ovarian it was 7.53 µM. Moreover, the TGI in the test with SF-295 CNS was 1.63 µM; in the test on SK-MEL-28 melanoma it was 2.97 µM; with U251 CNS it was 1.76 µM; in the test on UACC-257 melanoma, 2.31 µM.

With `O=C1NN2CC(c3ccccc3)=NN=C2c2ccccc21`, the GI50 with HCC-2998 colon is 15.6 µM; with HCT-15 colon, 24.4 µM; in the test on NCI-H226 lung, 22.8 µM; with NCI/ADR-RES ovarian it was 17.5 µM; in the test with OVCAR-3 ovarian, 20.1 µM; in the test with OVCAR-4 ovarian it was 61 µM. For the same molecule, the GI50 is 32.8 µM in the test with SF-295 CNS, 28.1 µM in the test on SK-MEL-28 melanoma, 18 µM in the test with U251 CNS and 59.1 µM with UACC-257 melanoma. In addition, the TGI in the test with HCC-2998 colon was 36.2 µM; in the test with HCT-15 colon it was 86.3 µM; with NCI-H226 lung it was 57.8 µM; in the test with NCI/ADR-RES ovarian it was 42.7 µM; with OVCAR-3 ovarian, 48.2 µM; in the test with OVCAR-4 ovarian it was above 100 µM. Further, the TGI in the test with SF-295 CNS was above 100 µM; in the test on SK-MEL-28 melanoma, above 100 µM; in the test with U251 CNS, 33.9 µM; in the test with UACC-257 melanoma it was above 100 µM.

For `O=C(N/N=C/c1ccc(Cl)cc1)c1ccc(NC(=O)c2ccccn2)cc1`, the GI50 was above 100 µM in the test on HCC-2998 colon; 42.1 µM in the test on HCT-15 colon; 24.5 µM with NCI-H226 lung; 16.2 µM in the test on NCI/ADR-RES ovarian; 14 µM with OVCAR-3 ovarian; 3.07 µM in the test on OVCAR-4 ovarian. The GI50 with SF-295 CNS is 28.7 µM; with SK-MEL-28 melanoma it was 33 µM; in the test on U251 CNS it was 6.45 µM; in the test with UACC-257 melanoma it was above 100 µM. Also, the TGI was above 100 µM with HCC-2998 colon; above 100 µM in the test on HCT-15 colon; above 100 µM with NCI-H226 lung; above 100 µM with NCI/ADR-RES ovarian; 33.6 µM with OVCAR-3 ovarian; 10.6 µM in the test with OVCAR-4 ovarian. The TGI is above 100 µM in the test on SF-295 CNS, above 100 µM in the test with SK-MEL-28 melanoma, 23.3 µM with U251 CNS and above 100 µM with UACC-257 melanoma.

For the molecule `COc1cc2cc(NCc3cccc(Cl)c3)nc(C)c2cc1OC`, the GI50 was 2.27 µM in the test with HCC-2998 colon; 2.83 µM in the test with HCT-15 colon; 4.35 µM with NCI-H226 lung; 2.02 µM in the test on NCI/ADR-RES ovarian; 3.72 µM in the test with OVCAR-3 ovarian; 1.83 µM in the test with OVCAR-4 ovarian. Besides, the GI50 was 0.513 µM with SF-295 CNS, 0.865 µM in the test with SK-MEL-28 melanoma, 2.4 µM with U251 CNS and 4.61 µM in the test with UACC-257 melanoma. Also, the TGI with HCC-2998 colon is 14.5 µM; in the test with HCT-15 colon, 19.9 µM; in the test with NCI-H226 lung it was 26.3 µM; in the test with NCI/ADR-RES ovarian it was 22.3 µM; with OVCAR-3 ovarian, 16.3 µM; in the test with OVCAR-4 ovarian, 25.4 µM. Moreover, the TGI was 16.8 µM with SF-295 CNS, 5.42 µM in the test on SK-MEL-28 melanoma, 16 µM in the test on U251 CNS and 19.3 µM with UACC-257 melanoma.

For `O=C(/C=C\c1ccc(O)c(O)c1)c1ccccc1O`, the GI50 with HCC-2998 colon is 13.9 µM; in the test on HCT-15 colon, 2.52 µM; in the test with NCI-H226 lung, 11 µM; with NCI/ADR-RES ovarian, 10.8 µM; in the test on OVCAR-3 ovarian, 8.86 µM; in the test with OVCAR-4 ovarian, 8.73 µM. Also, the GI50 with SF-295 CNS was 17.7 µM; in the test with SK-MEL-28 melanoma, 15.1 µM; with U251 CNS it was 7.95 µM; with UACC-257 melanoma, 12.8 µM. For the same molecule, the TGI in the test with HCC-2998 colon was 27 µM; with HCT-15 colon it was 19.1 µM; in the test on NCI-H226 lung it was 39.1 µM; in the test on NCI/ADR-RES ovarian, 36.1 µM; in the test on OVCAR-3 ovarian it was 24.2 µM; in the test with OVCAR-4 ovarian, 98.7 µM. Moreover, the TGI in the test with SF-295 CNS came to 54.4 µM; in the test on SK-MEL-28 melanoma, 42.7 µM; in the test on U251 CNS, 33.1 µM; in the test on UACC-257 melanoma, 44 µM.

In the case of `COc1ccc(-c2nc3sc(-c4cc(OC)c(OC)c(OC)c4)nn3c2/C=C2/C(=O)Nc3ccc(F)cc32)cc1`, the GI50 was 5.25 µM in the test with HCC-2998 colon; 2.5 µM in the test on HCT-15 colon; 16.8 µM in the test with NCI-H226 lung; 21.9 µM in the test on NCI/ADR-RES ovarian; 2.32 µM in the test on OVCAR-3 ovarian; 1.77 µM in the test with OVCAR-4 ovarian. The GI50 in the test on SF-295 CNS is 3 µM; in the test on SK-MEL-28 melanoma it was 9.58 µM; in the test on U251 CNS it was 1.77 µM; with UACC-257 melanoma, 3.35 µM. Further, the TGI was 22 µM in the test with HCC-2998 colon; above 100 µM with HCT-15 colon; 36.7 µM in the test with NCI-H226 lung; above 100 µM in the test with NCI/ADR-RES ovarian; 5.27 µM in the test on OVCAR-3 ovarian; 4.51 µM in the test with OVCAR-4 ovarian. The TGI in the test with SF-295 CNS was 10.8 µM; with SK-MEL-28 melanoma it was 27.8 µM; in the test on U251 CNS, 3.39 µM; with UACC-257 melanoma, 11.3 µM.

Consider `Cc1cc(I)cc(CNCCN(C)C)c1O`, for which the GI50 in the test on HCC-2998 colon is 35.1 µM; with HCT-15 colon, 43.8 µM; in the test with NCI-H226 lung it was above 100 µM; with NCI/ADR-RES ovarian, above 84.5 µM; in the test on OVCAR-3 ovarian, above 86 µM; with OVCAR-4 ovarian, above 93.1 µM. For the same molecule, the GI50 was 42.6 µM in the test with SF-295 CNS, 28.5 µM with SK-MEL-28 melanoma, 73.5 µM in the test with U251 CNS and above 62.5 µM in the test with UACC-257 melanoma. Also, the TGI with HCC-2998 colon, with HCT-15 colon, in the test on NCI-H226 lung, in the test on NCI/ADR-RES ovarian, in the test with OVCAR-3 ovarian and in the test on OVCAR-4 ovarian was above 100 µM in each case. For the same molecule, the TGI in the test on SF-295 CNS was above 88.1 µM; in the test with SK-MEL-28 melanoma it was above 80.4 µM; with U251 CNS it was above 100 µM; in the test on UACC-257 melanoma it was above 100 µM.

These data come from PubChem BioAssay (NCI).
